According to paper PMC9653733, “Characterization of a Potent, Selective, and Safe Inhibitor, Ac15(Az8)2, in Reversing Multidrug Resistance Mediated by Breast Cancer Resistance Protein (BCRP/ABCG2)” (International Journal of Molecular Sciences, 2022):
Like-named read-outs stand apart in the source and are kept apart here.

Key:
S1 cells [1] = assay: Drug accumulation assay in S1; format: cell-based, human; conditions: non-BCRP overexpressing S1 cells; 100 nM or 1000 nM
Method: Figure 2 Effect of Ac15(Az8)2 on intracellular accumulation of BCRP-substrates in S1 and S1M180 cells. Cells were pre-treated with 0.1% DMSO, 100 nM, or 1000 nM Ac15(Az8)2 and then incubated with BCRP substrates. (A) Topotecan accumulation. (B) DOX accumulation. The intracellular level of drug after treatment was normalized to that of S1 cells after incubating with 0.1% DMSO. Student unpaired two-tailed t-test was conducted as indicated (** p < 0.01, *** p < 0.001). (C) To measure DOX efflux, S1M180 cells were pre-incubated with medium containing 20 μM DOX for 1 h at 37 °C. Cells were then washed and further incubated with or without 1 µM of Ac15(Az8)2. At 0, 5, 10, 30, 60, 120, and 180 min, the cells were harvested to measure the intracellular DOX level. (D) To determine intracellular Ac15(Az8)2 concentration, 1 × 10^7 cells were incubated with 1 µM of Ac15(Az8)2 at 37 °C for 2 h. Cells were then washed with ice-cold PBS. […]
Briefly, 1 × 10^6 cells of S1 and S1M180 cells were pre-incubated with 100 nM or 1000 nM Ac15(Az8)2 for 2 h and followed by 50 µM of topotecan or 20 µM of DOX for 1-h incubation. […] The fluorescence level of DOX was determined by a fluorescence microplate reader (BMG Technologies) using excitation and an emission wavelength pair of 460 nm and 610 nm.

L929 = assay: Cytotoxicity towards normal mouse fibroblast cells L929; format: cell-based; conditions: value without asterisk
S1 cells [2] = assay: Cytotoxicity of anticancer drugs in parental S1 (0.1% DMSO); format: cell-based, human
[3] = Pharmacokinetics of topotecan in mice with or without Ac15(Az8)2; format: in vivo; conditions: female, Balb/c, mouse, plasma, ip, topotecan 2 mg/kg I.P.; for AUC(0-inf) / Cmax / half-life: 2 mg/kg; for half-life: read-out: Half-life (E-phase) of topotecan (converted)
Method: Ac15(Az8)2 and topotecan in plasma were analyzed by UPLC–MS/MS. UPLC (Acquity Waters) and triple quadrupole mass analyzer (Quattro Ultima) with an electrospray ionization source in the positive mode were used to quantify Ac15(Az8)2 and topotecan. Acquity UPLC BEH C8 and C18 column (1.7 µm 2.1 × 50 mm) from Waters was used to separate Ac15(Az8)2 and topotecan, respectively. Mobile phases used for Ac15(Az8)2 analysis were water and acetonitrile. Ac15(Az8)2 and its internal standard Ac15(Az5)2 (Figure S2) were monitored at m/z 608 → m/z 149 and m/z 594 → […], respectively. Mobile phases used for topotecan analysis were water and methanol. Topotecan and its internal standard tetracycline were monitored at m/z 422 → m/z 377 and m/z 445 → m/z 410, respectively.
Female Balb/c mice at 4–6 weeks were used for the pharmacokinetic studies. Ac15(Az8)2 at 4 mg/mL was prepared in 10% NMP, 10% Cremophor-EL and 80% H2O. Topotecan was dissolved in H2O at 1 mg/mL, and 45 mg/kg Ac15(Az8)2 was administered through intraperitoneal (I.P.) injection. Blood was collected at 10, 30, 60, 70, 90, 120, 180, 240, 300, 480, 720 and 1440 min by cardiac puncture and stored in heparinized tubes for centrifugation at 16,000 g for 5 min. For topotecan pharmacokinetic study, 2 mg/kg topotecan was I.P. administered one hour after 45 mg/kg Ac15(Az8)2 or solvent injection. Blood was collected at 10, 30, 60, 120, 240 and 480 min post-topotecan administration. All animal studies were approved by the Animal Subjects Ethics Sub-committee of the Hong Kong Polytechnic University and performed in accordance with the Cap340 Animal License of the Department of Health in Hong Kong.

[4] = 45 mg/kg Ac15(Az8)2 I.P. one hour prior

SMILES	Effect on DOX accumulation in S1 (S1 cells [1])	Effect on topotecan accumulation in S1 (S1 cells [1])	IC50 (L929)	IC50 (S1 cells [2]; Homo sapiens, S1 + 0.1% DMSO, mean ± S.D., n = 3, read-out: IC50 of topotecan)	RF (Relative Fold), topotecan: resistance of S1M180 compared to parental S1 (S1 cells [2]; S1 + 0.1% DMSO vs S1M180 + 0.1% DMSO)	AUC(0-inf) [3, 4]	Cmax [3, 4]	half-life [3, 4]	AUC(0-inf) ([3]; Ac15(Az8)2 0 mg/kg (solvent))	Cmax ([3]; Ac15(Az8)2 0 mg/kg (solvent))	half-life ([3]; Ac15(Az8)2 0 mg/kg (solvent))	Tmax [3, 4]
COC(=O)c1cccc(COc2c(-c3ccc(OCCOCCn4cc(CN(Cc5ccccc5)Cc5cn(CCOCCOc6ccc(-c7oc8ccccc8c(=O)c7OCc7cccc(C(=O)OC)c7)cc6)nn5)nn4)cc3)oc3ccccc3c2=O)c1 [Ac15(Az8)2]	did not affect	did not affect	> 500000 nM	–	–	–	–	–	–	–	–	–
CC[C@@]1(O)C(=O)OCc2c1cc1n(c2=O)Cc2cc3c(CN(C)C)c(O)ccc3nc2-1 [topotecan]	–	–	–	446 ± 20 nM	27.9	8700 ng·h/mL	4400 ng/mL	1.6 h	4400 ng·h/mL	2900 ng/mL	1.3 h	1 h
